Results reported in patent publication US11065616B2, “Methods of making microfluidic devices” (KING ABDULLAH UNIVERSITY OF SCIENCE AND TECHNOLOGY, priority 2015, dated 2021).

Tested on: Hela cells
Experiment: Cytotoxicity of Doxorubicin concentrations generated by the microfluidic gradient generator (CCK-8)
Assay type: cell-based, Human
Conditions: gradient 100-0 μg/ml DOX at the outlet ports, 24 h incubation, surface modified channels
Protocol: Hela cells were cultured in EMEM media supplemented with 10% fetal bovine serum (FBS) and 1% penicillin-streptomycin at 37° C. in a 5% CO2 humidified atmosphere. After cell detachment, the cell suspension was centrifuged, the pallet was collected, and cells were counted for further plating. Hela cells were seeded in 96 well plates at a density of 5×10^3/well. Alter 24 h, cells were treated with five different concentrations of the anticancer drug Doxorubicin (DOX) generated by the microfluidic gradient generator at a flow rate of 8.5 μl/min. The incubation of cells with test samples lasts for 24 h at 37° C. Then, the culture medium was discarded, and 100 μL of CCK8 solution in MEM media were added to each well and incubated for 4 h in darkness. The absorbance values were measured at […] using the xMark™ microplate absorbance spectrophotometer.
Two types of 3D printer resins (1) FormLabs clear and (2) Spot-Elastic were used to build microfluidic devices. The media for cell cultures were injected by passing the EMEM media through the reported microfluidic gradient generator, Both the inlets were fed with media for the first experiment. […] Doxorubicin was introduced to the cell culture after surface modification, and only one of the inlets was fed with Doxorubicin incorporated EMEM media and the other was fed with normal (Doxorubicin-free) EMEM media. […]

COc1cccc2c1C(=O)c1c(O)c3c(c(O)c1C2=O)C[C@@](O)(C(=O)CO)C[C@@H]3O[C@H]1C[C@H](N)[C@H](O)[C@H](C)O1 [DOX, Doxorubicin] was tested, and the “cell viability versus DOX concentration (in words)” value was “higher viability with a decrease in concentration of DOX”.
